Nine compounds from PubChem BioAssay (NCI) can be followed below.

Among the test systems are SNB-75 CNS; UACC-257 melanoma; SN12C renal; MDA-MB-435; OVCAR-3 ovarian; MALME-3M melanoma; NCI-H23 lung; SW-620 colon; 786-0 renal; OVCAR-8 ovarian; SK-MEL-5 melanoma; COLO 205 colon; SK-MEL-28 melanoma; MOLT-4 leukemia; HT29 colon; LOX IMVI melanoma.
Holding throughout (experiment): NCI tumour cell line growth inhibition, 48 h

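Interpolation was linear, between the two tested concentrations surrounding the appropriate level; five concentrations were tested over 48 hours in 96-well plates. Here, GI50 denotes the concentration required for 50% inhibition of growth. TGI marks complete inhibition of growth.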

Turning to `N=C(N)C1CN(CCc2cnc[nH]2)C(=O)NC1=O` (stereo not drawn), the TGI in the experiment with SNB-75 CNS, with UACC-257 melanoma, in the experiment with SN12C renal, in the experiment on MDA-MB-435, in the experiment on OVCAR-3 ovarian and with MALME-3M melanoma was over 100 µM each time. Moreover, the TGI in the experiment on NCI-H23 lung, with SW-620 colon, in the experiment with 786-0 renal, in the experiment with OVCAR-8 ovarian, with SK-MEL-5 melanoma and in the experiment with COLO 205 colon was over 100 µM in each case. In addition, the TGI in the experiment on SK-MEL-28 melanoma, in the experiment with MOLT-4 leukemia and in the experiment with HT29 colon was over 100 µM each time.

Take `CCOC(=O)N1CCN(c2c(C)nc(C)[nH]c2=O)CC1`: the TGI in the experiment with UACC-257 melanoma, in the experiment on SN12C renal, in the experiment on MDA-MB-435, in the experiment with OVCAR-3 ovarian, in the experiment with MALME-3M melanoma and with NCI-H23 lung was over 100 µM each time. For the same compound, the TGI with SW-620 colon, in the experiment with 786-0 renal, with OVCAR-8 ovarian, in the experiment on LOX IMVI melanoma, in the experiment with SK-MEL-5 melanoma and in the experiment on COLO 205 colon was over 100 µM throughout. Also, the TGI with SK-MEL-28 melanoma, with MOLT-4 leukemia and in the experiment on HT29 colon was over 100 µM in each case.

In the case of `O=C(c1ccco1)C1CC(c2ccc3ccccc3c2O)=NN1` (stereo not drawn), the TGI in the experiment on SNB-75 CNS, with UACC-257 melanoma, in the experiment on SN12C renal, in the experiment with MDA-MB-435, in the experiment on OVCAR-3 ovarian and with MALME-3M melanoma was over 100 µM in each case. Also, the TGI in the experiment with NCI-H23 lung, in the experiment with SW-620 colon, in the experiment on 786-0 renal, in the experiment with OVCAR-8 ovarian, in the experiment with SK-MEL-5 melanoma and in the experiment on COLO 205 colon was over 100 µM in each case. Further, the TGI in the experiment on SK-MEL-28 melanoma, in the experiment with MOLT-4 leukemia and in the experiment on HT29 colon was over 100 µM in each case.

Regarding `C[C@]12CCC3c4ccc(O)cc4CC[C@H]3C1CC(=O)N(N)C2=O` (stereo partly drawn), the TGI in the experiment on SNB-75 CNS, with UACC-257 melanoma, in the experiment with SN12C renal, in the experiment with MDA-MB-435, with OVCAR-3 ovarian and in the experiment on MALME-3M melanoma was over 100 µM each time. Besides, the TGI in the experiment on NCI-H23 lung, in the experiment with SW-620 colon, in the experiment with 786-0 renal, in the experiment with OVCAR-8 ovarian, with SK-MEL-5 melanoma and in the experiment with COLO 205 colon was over 100 µM throughout. Besides, the TGI with SK-MEL-28 melanoma, in the experiment on MOLT-4 leukemia and in the experiment with HT29 colon was over 100 µM throughout.

As for `Cc1c(/C=N/NC(=S)Nc2cccc(Cl)c2)c(=O)n(-c2ccccc2)n1C`, the TGI is 28.3 µM in the experiment with SNB-75 CNS; over 100 µM with UACC-257 melanoma; over 100 µM in the experiment on MDA-MB-435; 82.3 µM in the experiment on NCI-H23 lung; over 100 µM in the experiment on SW-620 colon; 37 µM in the experiment on 786-0 renal. In addition, the TGI with OVCAR-8 ovarian is 35.6 µM; in the experiment with LOX IMVI melanoma, over 100 µM; with SK-MEL-5 melanoma, over 100 µM; in the experiment on COLO 205 colon it was over 100 µM; in the experiment with SK-MEL-28 melanoma, over 100 µM; with MOLT-4 leukemia, over 100 µM. The TGI in the experiment with HT29 colon was over 100 µM.

For `CCCCC1Cc2ccccc2-c2n1c1ccccc1[n+]2C` (stereo not drawn), the TGI in the experiment on UACC-257 melanoma was 25.2 µM; in the experiment on MDA-MB-435, over 100 µM; in the experiment with OVCAR-3 ovarian, over 100 µM; in the experiment on NCI-H23 lung it was 42.5 µM; with SW-620 colon, over 100 µM; in the experiment with 786-0 renal it was over 100 µM. In addition, the TGI is over 100 µM in the experiment on OVCAR-8 ovarian; 62.3 µM in the experiment on LOX IMVI melanoma; 18 µM with SK-MEL-5 melanoma; 91 µM in the experiment on SK-MEL-28 melanoma; 81.8 µM in the experiment on MOLT-4 leukemia; 57.8 µM with HT29 colon.

For the compound `FC(F)(F)c1nc2ccc(SSc3ccc4nc(C(F)(F)F)[nH]c4c3)cc2[nH]1`, the GI50 in the experiment on SNB-75 CNS, in the experiment with SK-MEL-28 melanoma and in the experiment on HT29 colon was over 100 µM each time. Also, the TGI in the experiment on SNB-75 CNS, with UACC-257 melanoma, with SN12C renal, in the experiment with MDA-MB-435, with OVCAR-3 ovarian and in the experiment on NCI-H23 lung was over 100 µM in each case. In addition, the TGI in the experiment with SW-620 colon, in the experiment with 786-0 renal, in the experiment on OVCAR-8 ovarian, in the experiment on LOX IMVI melanoma, with SK-MEL-5 melanoma and in the experiment on COLO 205 colon was over 100 µM each time. The TGI in the experiment on SK-MEL-28 melanoma, in the experiment with MOLT-4 leukemia and with HT29 colon was over 100 µM in each case.

For `COc1cc(C2S/C(=C/c3ccccc3)C(=O)N2c2cc(Cl)ccc2Cl)cc(OC)c1OC` (stereo not drawn), the TGI in the experiment with UACC-257 melanoma, in the experiment on SN12C renal, in the experiment on MDA-MB-435, in the experiment with OVCAR-3 ovarian, in the experiment on MALME-3M melanoma and in the experiment on NCI-H23 lung was over 100 µM each time. For the same compound, the TGI is over 100 µM with SW-620 colon; 41.3 µM with 786-0 renal; over 100 µM in the experiment on OVCAR-8 ovarian; 36.1 µM with LOX IMVI melanoma; over 100 µM with SK-MEL-5 melanoma; over 100 µM in the experiment with COLO 205 colon. Besides, the TGI with SK-MEL-28 melanoma, in the experiment with MOLT-4 leukemia and in the experiment with HT29 colon was over 100 µM in each case.

Turning to `C=CCN1C(=O)CC1N(CC=C)S(=O)(=O)c1ccc(C)cc1` (stereo not drawn), the TGI in the experiment with UACC-257 melanoma, with SN12C renal, with MDA-MB-435, with OVCAR-3 ovarian, in the experiment with MALME-3M melanoma and with NCI-H23 lung was over 100 µM throughout. For the same compound, the TGI with SW-620 colon, with 786-0 renal, with OVCAR-8 ovarian, in the experiment on LOX IMVI melanoma, in the experiment on SK-MEL-5 melanoma and in the experiment with COLO 205 colon was over 100 µM throughout. Moreover, the TGI with SK-MEL-28 melanoma, in the experiment with MOLT-4 leukemia and in the experiment with HT29 colon was over 100 µM throughout.
